≈ marks a conversion by molar mass, not a printed value.
Tests used:
[1] = biological target: Protein kinase C alpha type (Homo sapiens, UniProt P17252); assay: Inhibition of full-length N-terminal GST-fused human PKC-alpha expressed in baculovirus expression system using (5FAM) RFARKGSLRQKNV as substrate after 60 mins by caliper assay
[2] = biological target: T1, Protein kinase C epsilon type (Homo sapiens, UniProt Q02156); assay: Inhibition of full-length N-terminal GST-fused human PKC-epsilon expressed in baculovirus expression system using (5FAM) RFARKGSLRQKNV as substrate after 60 mins by caliper assay
T1 sequence (Q02156 whole entry): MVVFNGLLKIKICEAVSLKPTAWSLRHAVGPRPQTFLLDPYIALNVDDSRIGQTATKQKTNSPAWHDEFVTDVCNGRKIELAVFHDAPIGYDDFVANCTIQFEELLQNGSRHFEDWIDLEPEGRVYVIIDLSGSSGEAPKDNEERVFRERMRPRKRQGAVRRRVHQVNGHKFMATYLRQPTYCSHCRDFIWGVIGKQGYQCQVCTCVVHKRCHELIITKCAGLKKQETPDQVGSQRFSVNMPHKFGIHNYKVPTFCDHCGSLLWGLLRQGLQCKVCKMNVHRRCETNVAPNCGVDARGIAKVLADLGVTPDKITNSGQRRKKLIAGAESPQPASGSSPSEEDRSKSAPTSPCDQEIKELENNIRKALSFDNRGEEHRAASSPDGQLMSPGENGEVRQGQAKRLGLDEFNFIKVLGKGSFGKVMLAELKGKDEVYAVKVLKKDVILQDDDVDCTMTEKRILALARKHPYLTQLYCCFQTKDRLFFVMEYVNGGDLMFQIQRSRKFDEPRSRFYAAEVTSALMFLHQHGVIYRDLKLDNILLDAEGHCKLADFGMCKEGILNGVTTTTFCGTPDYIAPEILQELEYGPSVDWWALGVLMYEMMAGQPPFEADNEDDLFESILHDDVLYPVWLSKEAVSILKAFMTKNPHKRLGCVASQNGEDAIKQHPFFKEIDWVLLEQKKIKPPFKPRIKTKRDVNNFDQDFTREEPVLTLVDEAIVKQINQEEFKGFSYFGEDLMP

[3] = biological target: T2, Protein kinase C iota type (Homo sapiens, UniProt P41743); assay: Inhibition of full-length N-terminal GST-fused human PKC-iota expressed in baculovirus expression system using (5FAM) RFARKGSLRQKNV as substrate after 60 mins by caliper assay
T2 sequence (P41743 whole entry): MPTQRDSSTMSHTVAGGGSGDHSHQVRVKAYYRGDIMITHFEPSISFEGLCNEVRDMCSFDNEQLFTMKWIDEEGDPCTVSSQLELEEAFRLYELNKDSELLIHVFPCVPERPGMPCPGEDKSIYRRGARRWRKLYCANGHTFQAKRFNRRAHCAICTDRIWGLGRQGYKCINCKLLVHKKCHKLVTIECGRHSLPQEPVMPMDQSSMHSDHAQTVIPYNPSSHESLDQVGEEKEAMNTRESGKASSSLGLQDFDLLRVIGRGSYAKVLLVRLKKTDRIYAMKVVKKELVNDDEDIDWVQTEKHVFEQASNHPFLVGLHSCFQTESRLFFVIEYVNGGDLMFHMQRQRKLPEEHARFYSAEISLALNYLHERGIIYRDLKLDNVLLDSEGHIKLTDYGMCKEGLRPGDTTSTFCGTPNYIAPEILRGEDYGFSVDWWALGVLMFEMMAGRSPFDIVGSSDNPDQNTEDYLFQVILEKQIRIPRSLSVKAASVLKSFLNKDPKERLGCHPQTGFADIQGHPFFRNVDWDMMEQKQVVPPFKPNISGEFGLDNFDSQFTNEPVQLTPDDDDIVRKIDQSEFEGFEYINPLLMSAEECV

Huh-7 = assay: Antiproliferative activity against human HuH7 cells after 72 hrs by CellTiter-Glo assay; assay type: functional; conditions: Huh-7, 72 h
HCCLM3 = assay: Antiproliferative activity against human HCCLM3 cells after 72 hrs by CellTiter-Glo assay; assay type: functional; conditions: HCCLM3, 72 h
[4] = Permeability across apical to basolateral side in human Caco2 cells; assay type: ADME, cell-based; conditions: Caco-2, read-out: permeability
[5] = Half life in mouse liver microsomes; assay type: ADME, microsome
[6] = Solubility of the compound at pH 7.4; assay type: physicochemical; conditions: buffer
[7] = Solubility of the compound at pH 4; assay type: physicochemical; conditions: buffer
Cytochrome P450 2D6 = Cytochrome P450 2D6 (Homo sapiens, UniProt P10635); assay: Inhibition of CYP2D6 (unknown origin); assay type: ADME
[8] = Clearance in human liver microsomes; assay type: ADME, microsome; conditions: read-out: CLH
[9] = Clearance in mouse liver microsomes; assay type: ADME, microsome; conditions: read-out: CLH
[10] = Half life in human liver microsomes; assay type: ADME, microsome

Chain of Cytochrome P450 2D6 (P10635 whole entry): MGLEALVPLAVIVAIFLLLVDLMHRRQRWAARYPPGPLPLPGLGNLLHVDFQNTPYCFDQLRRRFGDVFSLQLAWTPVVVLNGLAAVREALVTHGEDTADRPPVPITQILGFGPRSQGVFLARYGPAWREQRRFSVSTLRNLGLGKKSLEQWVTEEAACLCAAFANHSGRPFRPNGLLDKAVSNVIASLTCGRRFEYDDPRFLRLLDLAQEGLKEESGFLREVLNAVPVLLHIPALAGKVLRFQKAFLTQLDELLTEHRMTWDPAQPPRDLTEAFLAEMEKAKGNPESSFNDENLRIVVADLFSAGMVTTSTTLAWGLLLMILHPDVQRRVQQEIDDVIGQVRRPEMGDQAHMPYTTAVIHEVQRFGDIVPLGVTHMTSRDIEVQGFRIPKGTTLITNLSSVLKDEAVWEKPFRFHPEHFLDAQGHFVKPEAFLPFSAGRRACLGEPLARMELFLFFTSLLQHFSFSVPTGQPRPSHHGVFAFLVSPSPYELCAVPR

IC50 [1] [µM]	IC50 [3] [µM]	SMILES	also measured
0.071	–	COc1cc2c(cc1-c1cnn3ccc(-c4ccnc5[nH]ccc45)cc13)CNCC2	–
0.045	0.0027	COc1cc2c(cc1-c1cnn3ccc(-c4ccnc5[nH]ccc45)cc13)CNC(CF)C2 (centres undefined)	IC50 [2]: 0.045 µM; GI50 (Huh-7): 3.3 µM; GI50 (HCCLM3): 6.6 µM
0.064	–	COc1cc2c(cc1-c1cnn3ccc(-c4ccnc5[nH]ccc45)cc13)CNC(C)C2 (centres undefined)	–
0.38	–	COc1cc2c(cc1-c1cnn3ccc(-c4ccnc5[nH]ccc45)cc13)CN(C(C)=O)C2	–
2.5	–	COc1ccc2c(c1)C(=O)N(c1cnn3ccc(-c4ccnc5[nH]ccc45)cc13)C2	–
0.35	–	COc1cc2c(cc1-c1cnn3ccc(-c4ccnc5[nH]ccc45)nc13)CNC2	–
–	1680	O=C1CCCc2cc(O)ccc21	–
–	1300	Clc1ccnc2[nH]ccc12	–
–	615	Brc1ccnc2[nH]ccc12	–
–	728	Nc1ccc2[nH]cnc2c1	–
0.34	–	COc1cc2c(cc1-c1cnc3ccc(-c4ccnc5[nH]ccc45)cn13)CNC2	–
1.4	–	COc1cc2c(cc1-c1cnc3ccc(-c4ccnc5[nH]ccc45)nn13)CNC2	–
0.28	0.048	COc1cc2c(cc1-n1cnc3ccc(-c4ccnc5[nH]ccc45)cc31)CNC2	Papp A→B [4]: 0.57 ×10⁻⁶ cm/s; IC50 [2]: 0.56 µM; half-life [5]: 32 min; GI50 (Huh-7): 9 µM; solubility [6]: 1.3 µg/mL (≈ 3.41 µM); solubility [7]: 790 µg/mL (≈ 2070 µM); IC50 (Cytochrome P450 2D6): 24 µM; microsomal CLint [8]: 10 µL/min/mg; microsomal CLint [9]: 21.5 µL/min/mg; half-life [10]: 67 min
0.14	–	COc1cc2c(cc1-c1cnn3ccc(-c4ccnc5[nH]ccc45)cc13)CN(C)C2	–
0.25	–	COc1cc2c(cc1-n1cnc3cnc(-c4ccnc5[nH]ccc45)cc31)CNC2	–
–	589	O=c1[nH]ncc2ccccc12 [PHTHALAZINONE]	–
0.43	–	COc1cc2c(cc1-n1cnc3ccc(-c4ccnc5[nH]ccc45)nc31)CNC2	–
–	1310	Cn1ccc2cc(N)ccc21	–
0.11	–	COc1cc2c(cc1-c1cnn3ccc(-c4ccnc5[nH]ccc45)cc13)CNC2	–
